From PubChem BioAssay (NCI)
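Method: 48-hour compound exposure of cells in 96-well plates, five concentrations, linear interpolation of endpoints. TGI is the concentration that stops growth completely.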

Key:
Assay in all cases: inhibition of tumour cell growth, NCI panel, 48 h
CAKI-1 renal = system: CAKI-1 renal
A549 NSCLC = system: A549 NSCLC
COLO 205 colon = system: COLO 205 colon
SN12C renal = system: SN12C renal
UO-31 renal = system: UO-31 renal
M14 melanoma = system: M14 melanoma
HCT-15 colon = system: HCT-15 colon
NCI-H460 lung = system: NCI-H460 lung
HCC-2998 colon = system: HCC-2998 colon
SW-620 colon = system: SW-620 colon
NCI-H23 lung = system: NCI-H23 lung
OVCAR-4 ovarian = system: OVCAR-4 ovarian
MDA-MB-435 = system: MDA-MB-435
SF-539 CNS = system: SF-539 CNS
RXF 393 renal = system: RXF 393 renal
HL-60(TB) leukemia = system: HL-60(TB) leukemia
UACC-257 melanoma = system: UACC-257 melanoma
SK-OV-3 ovarian = system: SK-OV-3 ovarian
DU-145 prostate = system: DU-145 prostate
UACC-62 melanoma = system: UACC-62 melanoma
SK-MEL-5 melanoma = system: SK-MEL-5 melanoma
SK-MEL-28 melanoma = system: SK-MEL-28 melanoma
U251 CNS = system: U251 CNS
MDA-MB-231 breast = system: MDA-MB-231 breast
OVCAR-8 ovarian = system: OVCAR-8 ovarian
CCRF-CEM leukemia = system: CCRF-CEM leukemia
LOX IMVI melanoma = system: LOX IMVI melanoma
HOP-92 NSCLC = system: HOP-92 NSCLC
786-0 renal = system: 786-0 renal
ACHN renal = system: ACHN renal
HS 578T breast = system: HS 578T breast
NCI-H226 lung = system: NCI-H226 lung
KM12 colon = system: KM12 colon
BT-549 breast = system: BT-549 breast
EKVX NSCLC = system: EKVX NSCLC
SR leukemia = system: SR leukemia
HCT-116 colon = system: HCT-116 colon
SK-MEL-2 melanoma = system: SK-MEL-2 melanoma
NCI-H522 lung = system: NCI-H522 lung
SNB-19 CNS = system: SNB-19 CNS
IGROV1 ovarian = system: IGROV1 ovarian
OVCAR-3 ovarian = system: OVCAR-3 ovarian
MDA-N = system: MDA-N
NCI/ADR-RES ovarian = system: NCI/ADR-RES ovarian
SNB-75 CNS = system: SNB-75 CNS
TK-10 renal = system: TK-10 renal
HOP-62 NSCLC = system: HOP-62 NSCLC
OVCAR-5 ovarian = system: OVCAR-5 ovarian
MOLT-4 leukemia = system: MOLT-4 leukemia
K-562 leukemia = system: K-562 leukemia
HT29 colon = system: HT29 colon
SF-268 CNS = system: SF-268 CNS
A498 renal = system: A498 renal
MCF7 breast = system: MCF7 breast
T-47D breast = system: T-47D breast
SF-295 CNS = system: SF-295 CNS
MALME-3M melanoma = system: MALME-3M melanoma
PC-3 prostate = system: PC-3 prostate

Measured: TGI

C=CCC1(O)C(=O)OC2C(O)COC21O (stereo not drawn)
> 100 µM: all assays above
